Assay results: article PMC5862592, “CDK8/19 inhibition induces premature G1/S transition and ATR-dependent cell death in prostate cancer cells” (Oncotarget, 2018)
Where two headings read alike, the source gives them in different places.

Assays:
Assay in all cases: biochemical
Set-up in all cases: KINOMEscan active site-directed competition binding assay (DiscoveRx), 456 kinases, per cent of control at 300 nM
Details in all cases: read-out: Percent of Control (%)
MAP3K4 = MAP3K4 (Homo sapiens, UniProt Q9Y6R4)
Method in brief: (§1)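 Values reflect active-site competition binding from a screen of 456 kinases, with test compounds at a fixed 300 nmol/L.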

ROS1 = ROS1 (Homo sapiens, UniProt P08922)
Method in brief: as §1

FLT3 = FLT3 (Homo sapiens, UniProt P36888)
Method in brief: as §1

LCK = LCK (Homo sapiens, UniProt P06239)
Sequence of LCK (P06239 whole entry): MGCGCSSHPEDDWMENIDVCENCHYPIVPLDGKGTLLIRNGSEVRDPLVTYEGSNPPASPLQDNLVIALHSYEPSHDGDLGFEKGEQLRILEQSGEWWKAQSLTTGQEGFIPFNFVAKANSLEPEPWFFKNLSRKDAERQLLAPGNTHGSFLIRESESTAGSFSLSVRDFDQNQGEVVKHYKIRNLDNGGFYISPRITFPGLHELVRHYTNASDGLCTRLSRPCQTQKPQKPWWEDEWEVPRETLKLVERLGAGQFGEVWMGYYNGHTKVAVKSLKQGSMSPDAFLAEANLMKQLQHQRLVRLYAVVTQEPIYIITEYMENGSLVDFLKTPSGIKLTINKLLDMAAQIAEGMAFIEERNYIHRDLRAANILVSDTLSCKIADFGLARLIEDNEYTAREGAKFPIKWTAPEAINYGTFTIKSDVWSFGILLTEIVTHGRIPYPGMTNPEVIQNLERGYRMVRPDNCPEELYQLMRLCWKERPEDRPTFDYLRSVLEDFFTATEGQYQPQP
Method in brief: as §1

CSNK2A2 = CSNK2A2 (Homo sapiens, UniProt P19784)
Method in brief: as §1

TAOK2 = TAOK2 (Homo sapiens, UniProt Q9UL54)
Sequence of TAOK2 (Q9UL54 whole entry): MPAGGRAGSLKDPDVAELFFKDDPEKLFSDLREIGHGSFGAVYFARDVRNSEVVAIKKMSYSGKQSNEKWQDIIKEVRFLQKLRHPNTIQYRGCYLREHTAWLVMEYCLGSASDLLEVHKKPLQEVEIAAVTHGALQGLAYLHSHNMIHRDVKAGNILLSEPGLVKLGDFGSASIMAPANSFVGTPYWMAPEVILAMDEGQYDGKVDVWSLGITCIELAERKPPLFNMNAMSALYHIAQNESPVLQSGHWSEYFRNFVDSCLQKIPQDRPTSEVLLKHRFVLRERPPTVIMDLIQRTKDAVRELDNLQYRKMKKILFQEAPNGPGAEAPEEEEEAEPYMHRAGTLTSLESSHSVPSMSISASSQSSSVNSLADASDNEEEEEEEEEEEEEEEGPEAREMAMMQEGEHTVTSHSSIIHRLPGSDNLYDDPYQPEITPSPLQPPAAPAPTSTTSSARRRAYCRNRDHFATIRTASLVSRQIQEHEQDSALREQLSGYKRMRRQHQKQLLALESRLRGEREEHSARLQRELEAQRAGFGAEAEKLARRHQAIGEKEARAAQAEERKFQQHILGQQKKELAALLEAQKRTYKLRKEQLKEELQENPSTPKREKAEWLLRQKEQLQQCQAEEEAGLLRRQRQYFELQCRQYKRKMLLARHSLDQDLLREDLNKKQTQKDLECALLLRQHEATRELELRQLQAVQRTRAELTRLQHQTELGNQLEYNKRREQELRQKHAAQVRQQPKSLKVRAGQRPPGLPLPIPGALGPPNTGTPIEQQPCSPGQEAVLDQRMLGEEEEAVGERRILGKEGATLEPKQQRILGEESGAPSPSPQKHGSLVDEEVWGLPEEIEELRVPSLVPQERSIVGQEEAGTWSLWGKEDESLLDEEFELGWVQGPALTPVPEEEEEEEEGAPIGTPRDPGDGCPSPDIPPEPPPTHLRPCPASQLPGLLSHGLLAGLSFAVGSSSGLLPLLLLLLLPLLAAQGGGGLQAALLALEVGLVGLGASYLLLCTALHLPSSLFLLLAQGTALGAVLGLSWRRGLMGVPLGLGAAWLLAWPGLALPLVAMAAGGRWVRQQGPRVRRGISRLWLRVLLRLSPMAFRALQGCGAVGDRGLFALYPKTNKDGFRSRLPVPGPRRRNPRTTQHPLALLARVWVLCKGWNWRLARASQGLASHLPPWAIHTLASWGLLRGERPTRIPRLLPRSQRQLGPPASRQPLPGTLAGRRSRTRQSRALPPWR
Method in brief: as §1

EPHA8 = EPHA8 (Homo sapiens, UniProt P29322)
Sequence of EPHA8 (P29322 whole entry): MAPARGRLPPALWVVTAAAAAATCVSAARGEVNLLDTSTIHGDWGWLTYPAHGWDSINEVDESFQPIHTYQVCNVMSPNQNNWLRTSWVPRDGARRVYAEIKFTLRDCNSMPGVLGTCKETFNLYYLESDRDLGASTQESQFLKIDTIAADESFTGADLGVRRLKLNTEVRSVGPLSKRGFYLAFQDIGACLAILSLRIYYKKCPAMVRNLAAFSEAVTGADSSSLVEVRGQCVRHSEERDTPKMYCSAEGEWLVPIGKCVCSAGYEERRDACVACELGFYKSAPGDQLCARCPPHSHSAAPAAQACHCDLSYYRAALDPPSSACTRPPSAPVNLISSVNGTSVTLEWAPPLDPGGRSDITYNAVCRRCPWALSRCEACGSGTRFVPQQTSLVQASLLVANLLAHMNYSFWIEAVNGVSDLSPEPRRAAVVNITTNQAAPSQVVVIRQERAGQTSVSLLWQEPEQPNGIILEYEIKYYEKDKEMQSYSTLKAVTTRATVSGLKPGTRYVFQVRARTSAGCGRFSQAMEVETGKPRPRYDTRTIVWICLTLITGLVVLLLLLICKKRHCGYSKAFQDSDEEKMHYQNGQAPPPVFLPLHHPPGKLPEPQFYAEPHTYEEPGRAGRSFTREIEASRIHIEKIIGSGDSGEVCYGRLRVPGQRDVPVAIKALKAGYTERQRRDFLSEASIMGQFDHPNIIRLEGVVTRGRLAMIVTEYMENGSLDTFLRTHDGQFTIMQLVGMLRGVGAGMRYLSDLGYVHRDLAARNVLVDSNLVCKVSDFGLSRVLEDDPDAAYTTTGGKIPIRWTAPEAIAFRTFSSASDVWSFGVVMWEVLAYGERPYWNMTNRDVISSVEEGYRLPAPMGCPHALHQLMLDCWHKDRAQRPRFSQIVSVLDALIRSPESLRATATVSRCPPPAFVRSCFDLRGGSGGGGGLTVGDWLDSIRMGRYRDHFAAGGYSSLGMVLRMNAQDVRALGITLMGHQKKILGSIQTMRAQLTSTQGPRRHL
Method in brief: as §1

MEK2 = molecular target: T1, MEK2 (Homo sapiens, UniProt P36507)
T1 construct: gene MAP2K2
Method in brief: as §1

MAP3K1 = MAP3K1 (Homo sapiens, UniProt Q13233)
Method in brief: as §1

[1] = molecular target: T2, RSK2(Kin.Dom.1-N-terminal) (Homo sapiens, UniProt P51812)
T2 construct: gene RPS6KA3; Kin.Dom.1-N-terminal
T2 sequence (P51812 whole entry): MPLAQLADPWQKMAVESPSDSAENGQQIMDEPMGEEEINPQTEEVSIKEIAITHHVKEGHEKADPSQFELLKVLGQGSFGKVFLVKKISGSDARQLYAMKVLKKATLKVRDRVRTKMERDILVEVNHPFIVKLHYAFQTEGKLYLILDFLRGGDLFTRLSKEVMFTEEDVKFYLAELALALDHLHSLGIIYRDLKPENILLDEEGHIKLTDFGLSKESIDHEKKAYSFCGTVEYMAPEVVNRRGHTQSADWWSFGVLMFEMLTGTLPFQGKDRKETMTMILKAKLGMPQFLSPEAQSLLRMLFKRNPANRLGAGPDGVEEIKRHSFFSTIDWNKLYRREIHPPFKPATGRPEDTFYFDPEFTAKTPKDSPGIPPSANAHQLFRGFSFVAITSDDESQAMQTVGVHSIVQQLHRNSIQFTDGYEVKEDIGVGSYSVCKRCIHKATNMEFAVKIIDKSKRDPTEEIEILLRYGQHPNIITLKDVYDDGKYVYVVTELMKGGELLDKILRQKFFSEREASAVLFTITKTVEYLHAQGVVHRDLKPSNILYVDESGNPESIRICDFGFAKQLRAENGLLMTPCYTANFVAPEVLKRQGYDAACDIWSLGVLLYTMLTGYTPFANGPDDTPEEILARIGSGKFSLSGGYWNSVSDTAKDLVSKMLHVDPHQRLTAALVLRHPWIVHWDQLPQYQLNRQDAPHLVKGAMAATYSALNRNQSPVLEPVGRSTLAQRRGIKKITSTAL
Method in brief: as §1

MEK4 = molecular target: T3, MEK4 (Homo sapiens, UniProt P45985)
T3 construct: gene MAP2K4
Method in brief: as §1

EPHB4 = EPHB4 (Homo sapiens, UniProt P54760)
Method in brief: as §1

SBK1 = SBK1 (Homo sapiens, UniProt Q52WX2)
Method in brief: as §1

EGFR(L858R,T790M) = EGFR(L858R,T790M) (Homo sapiens, UniProt P00533, L858R/T790M)
Method in brief: as §1

TGFBR1 = TGFBR1 (Homo sapiens, UniProt P36897)
Method in brief: as §1

PIK3CA(I800L) = PIK3CA(I800L) (Homo sapiens, UniProt P42336, I800L)
Method in brief: as §1

PRKD2 = PRKD2 (Homo sapiens, UniProt Q9BZL6)
Method in brief: as §1

NIK = molecular target: T4, NIK (Homo sapiens, UniProt Q99558)
T4 construct: gene MAP3K14
T4 sequence (Q99558 whole entry): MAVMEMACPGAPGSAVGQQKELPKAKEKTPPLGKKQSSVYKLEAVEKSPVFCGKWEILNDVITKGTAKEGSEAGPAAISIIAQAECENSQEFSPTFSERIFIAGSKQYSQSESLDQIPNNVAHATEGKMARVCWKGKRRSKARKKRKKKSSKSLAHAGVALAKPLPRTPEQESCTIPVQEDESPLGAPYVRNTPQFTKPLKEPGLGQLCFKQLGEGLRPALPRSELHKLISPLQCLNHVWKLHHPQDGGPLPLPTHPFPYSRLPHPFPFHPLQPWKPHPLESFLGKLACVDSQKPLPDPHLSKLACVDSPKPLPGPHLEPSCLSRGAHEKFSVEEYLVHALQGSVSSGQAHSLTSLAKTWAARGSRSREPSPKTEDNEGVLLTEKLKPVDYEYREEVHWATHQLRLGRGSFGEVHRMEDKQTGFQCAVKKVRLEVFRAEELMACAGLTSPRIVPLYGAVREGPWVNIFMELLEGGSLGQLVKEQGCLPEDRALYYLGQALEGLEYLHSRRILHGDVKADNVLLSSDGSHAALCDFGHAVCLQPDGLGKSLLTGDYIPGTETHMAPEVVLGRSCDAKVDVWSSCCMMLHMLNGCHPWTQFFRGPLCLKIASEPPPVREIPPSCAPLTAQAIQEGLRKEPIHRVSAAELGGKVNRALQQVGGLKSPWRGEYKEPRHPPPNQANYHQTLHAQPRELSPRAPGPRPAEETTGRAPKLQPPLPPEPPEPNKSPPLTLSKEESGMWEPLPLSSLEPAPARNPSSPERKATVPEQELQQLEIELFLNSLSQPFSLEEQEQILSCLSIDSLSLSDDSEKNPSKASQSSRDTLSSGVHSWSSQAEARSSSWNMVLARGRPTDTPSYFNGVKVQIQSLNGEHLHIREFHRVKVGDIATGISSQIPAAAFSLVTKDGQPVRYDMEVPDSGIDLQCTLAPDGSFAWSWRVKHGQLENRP
Method in brief: as §1

TIE1 = TIE1 (Homo sapiens, UniProt P35590)
Method in brief: as §1

VRK2 = VRK2 (Homo sapiens, UniProt Q86Y07)
Method in brief: as §1

BRSK1 = BRSK1 (Homo sapiens, UniProt Q8TDC3)
Method in brief: as §1

FLT3(ITD) = FLT3(ITD) (Homo sapiens, UniProt P36888, ITD)
Sequence of FLT3(ITD) (P36888 564-993, change not shown): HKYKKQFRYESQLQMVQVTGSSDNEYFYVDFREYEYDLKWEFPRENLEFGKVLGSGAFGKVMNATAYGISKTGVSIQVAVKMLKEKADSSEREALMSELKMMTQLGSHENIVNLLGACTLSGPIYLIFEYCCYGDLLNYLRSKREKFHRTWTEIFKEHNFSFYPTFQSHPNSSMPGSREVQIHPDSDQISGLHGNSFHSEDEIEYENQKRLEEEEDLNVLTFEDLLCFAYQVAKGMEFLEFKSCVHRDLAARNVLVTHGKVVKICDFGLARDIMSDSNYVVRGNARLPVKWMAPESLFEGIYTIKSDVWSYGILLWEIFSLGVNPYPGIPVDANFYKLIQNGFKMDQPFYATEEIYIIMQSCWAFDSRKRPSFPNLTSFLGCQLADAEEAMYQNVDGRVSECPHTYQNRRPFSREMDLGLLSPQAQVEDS
Method in brief: as §1

O=C(/C=C/c1cnccc1-c1ccc(F)cc1)Nc1ccc(CCc2nnco2)cc1 [T-418, (2E)-3-(4-(4-fluorophenyl)pyridin-3-yl)-N-(4-(2-(1,3,4-oxadiazol-2-yl)ethyl)phenyl)acrylamide]
remaining binding at 0.3 µM (MAP3K4; sheet T-418): 68%
remaining binding at 0.3 µM (ROS1; sheet T-418): 100%
remaining binding at 0.3 µM (FLT3; sheet T-418): 66%
remaining binding at 0.3 µM (LCK; sheet T-418): 98%
remaining binding at 0.3 µM (CSNK2A2; sheet T-418): 100%
remaining binding at 0.3 µM (TAOK2; sheet T-418): 100%
remaining binding at 0.3 µM (EPHA8; sheet T-418): 88%
remaining binding at 0.3 µM (MEK2; sheet T-418): 100%
remaining binding at 0.3 µM (MAP3K1; sheet T-418): 100%
remaining binding at 0.3 µM ([1]; sheet T-418): 100%
remaining binding at 0.3 µM (MEK4; sheet T-418): 100%
remaining binding at 0.3 µM (EPHB4; sheet T-418): 96%
remaining binding at 0.3 µM (SBK1; sheet T-418): 73%
remaining binding at 0.3 µM (EGFR(L858R,T790M); sheet T-418): 98%
remaining binding at 0.3 µM (TGFBR1; sheet T-418): 94%
remaining binding at 0.3 µM (PIK3CA(I800L); sheet T-418): 51%
remaining binding at 0.3 µM (PRKD2; sheet T-418): 76%
remaining binding at 0.3 µM (NIK; sheet T-418): 100%
remaining binding at 0.3 µM (TIE1; sheet T-418): 100%
remaining binding at 0.3 µM (VRK2; sheet T-418): 100%
remaining binding at 0.3 µM (BRSK1; sheet T-418): 100%
remaining binding at 0.3 µM (FLT3(ITD); sheet T-418): 100%

Cc1ncccc1Oc1sc(C(N)=O)c2c1-c1c(cnn1C)CC2 [T-474, 1-methyl-8-((2-methylpyridin-3-yl)oxy)-4,5-dihydro-1H-thieno[3,4-g]indazole-6-carboxamide]
remaining binding at 0.3 µM (MAP3K4): 72%
remaining binding at 0.3 µM (ROS1): 100%
remaining binding at 0.3 µM (FLT3): 100%
remaining binding at 0.3 µM (LCK): 100%
remaining binding at 0.3 µM (CSNK2A2): 100%
remaining binding at 0.3 µM (TAOK2): 100%
remaining binding at 0.3 µM (EPHA8): 91%
remaining binding at 0.3 µM (MEK2): 100%
remaining binding at 0.3 µM (MAP3K1): 84%
remaining binding at 0.3 µM [1]: 100%
remaining binding at 0.3 µM (MEK4): 100%
remaining binding at 0.3 µM (EPHB4): 100%
remaining binding at 0.3 µM (SBK1): 91%
remaining binding at 0.3 µM (EGFR(L858R,T790M)): 85%
remaining binding at 0.3 µM (TGFBR1): 81%
remaining binding at 0.3 µM (PIK3CA(I800L)): 77%
remaining binding at 0.3 µM (PRKD2): 100%
remaining binding at 0.3 µM (NIK): 100%
remaining binding at 0.3 µM (TIE1): 100%
remaining binding at 0.3 µM (VRK2): 100%
remaining binding at 0.3 µM (BRSK1): 100%
remaining binding at 0.3 µM (FLT3(ITD)): 100%
